Reference: patent US20040005537A1, “Method of identifying toxic agents using differential gene expression” (priority 2000, published 2004)

Key:
rat heart tissue = test: GENECALLING differential gene expression analysis after dosing of serotonin modulating agents; assay type: in vivo, Sprague Dawley rats
Procedure, shortened: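 Rats dosed with serotonin modulating agents, controls given sterile water or canola oil; tissue taken 24 h after the last dose. Total RNA converted to cDNA and profiled by GENECALLING differential expression analysis; fragments changed more than ±1.5-fold were selected.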

[1] = grouping used to generate the distinguishing gene profiles; cited from earlier work

CNS(=O)(=O)Cc1ccc2[nH]cc(CCN(C)C)c2c1 [sumatriptan]
Effects on Transcription Level: Novel gene fragment, 445 bp, 85% SI to human skeletal muscle alpha 2 actinin [M86406] (rat heart tissue; CARDIOTOX 72): 5.7 fold | Effects on Transcription Level: Novel gene fragment, 246 bp, 89% SI to mouse ponsin-1 [AF078667] (rat heart tissue; CARDIOTOX 73): −3.2 fold | Effects on Transcription Level: Novel gene fragment, 126 bp, 77% SI to human DNA sequence from cosmid V311G7, between markers DXS366 and DXS87 on chromosome X [Z69304] (rat heart tissue; CARDIOTOX 74): +2.1 fold | Effects on Transcription Level: Novel gene fragment, 370 bp (rat heart tissue; CARDIOTOX 75): −2.7 fold | Effects on Transcription Level: Novel gene fragment, 337 bp, 78% SI to novel human protein AHNAK [M80899] (rat heart tissue; CARDIOTOX 76): −4.3 fold | Effects on Transcription Level: Novel gene fragment, 100 bp, 93% SI to human KIAA0750 protein [ABO18293] (rat heart tissue; CARDIOTOX 77): −9.3 fold | Effects on Transcription Level: Novel gene fragment, 44 bp (rat heart tissue; CARDIOTOX 78): −5.4 fold | Effects on Transcription Level: Novel gene fragment, 698 bp, 93% SI to mouse plenty-of-prolines-101 [AF062655] (rat heart tissue; CARDIOTOX 79): −2.3 fold | Effects on Transcription Level: Novel gene fragment, 660 bp, 84% SI to mouse membrane protein TMS-2 [AF181685] (rat heart tissue; CARDIOTOX 80): −3.8 fold | Effects on Transcription Level: Novel gene fragment, 115 bp (rat heart tissue; CARDIOTOX 81): −4.1 fold | Effects on Transcription Level: Novel gene fragment, 294 bp, 95% SI to mouse Ndr1 related protein Ndr2 [AB033921] (rat heart tissue; CARDIOTOX 82): −2.0 fold | Effects on Transcription Level: Novel gene fragment, 198 bp (rat heart tissue; CARDIOTOX 83): +2.5 fold | Effects on Transcription Level: Novel gene fragment, 730 bp, 86% SI to mouse E800 [Y10968] (rat heart tissue; CARDIOTOX 84): −2.8 fold | Effects on Transcription Level: Novel gene fragment, 294 bp, 98% SI to cysteine conjugate beta-lyase [S61960] (rat heart tissue; CARDIOTOX 85): −2.8 fold | Effects on Transcription Level: Aconitase (rat heart tissue; CARDIOTOX 86, GenBank A1243266): −1.9 fold | Effects on Transcription Level: Ribosomal protein L7 (rat heart tissue; CARDIOTOX 87, GenBank M17422): +2.5 fold | Effects on Transcription Level: Ribosomal protein L9 (rat heart tissue; CARDIOTOX 88, GenBank X51706): +10.1 fold | Effects on Transcription Level: Ribosomal protein L12 (rat heart tissue; CARDIOTOX 89, GenBank X53504): −1.5 fold | Effects on Transcription Level: 18S, 5.8S, and 28S ribosomal RNA's (rat heart tissue; CARDIOTOX 90, GenBank V01270): +5 fold | Effects on Transcription Level: Pyruvate dehydrogenase kinase 2 (PDK2) (rat heart tissue; CARDIOTOX 91, GenBank U10357): −6.10 fold | Effects on Transcription Level: D-Binding Protein (DBP) (rat heart tissue; CARDIOTOX 92, GenBank J03179): −1.4 fold | Effects on Transcription Level: Lipoprotein lipase (rat heart tissue; CARDIOTOX 93, GenBank L03294): −2.2 fold | Effects on Transcription Level: Non-neuronal enolase (rat heart tissue; CARDIOTOX 94, GenBank X02610): +3.5 fold | Effects on Transcription Level: Glycogen phosphorylase (muscle isozyme) (rat heart tissue; CARDIOTOX 95, GenBank L10669): −2.6 fold | Effects on Transcription Level: Cytochrome c oxidase subunit IV (rat heart tissue; CARDIOTOX 96, GenBank X14209): +10.0 fold | Effects on Transcription Level: Alpha-globin (rat heart tissue; CARDIOTOX 97, GenBank M17083): +3.8 fold | Effects on Transcription Level: Beta-globin (rat heart tissue; CARDIOTOX 98, GenBank X06701): +3.11 fold | Effects on Transcription Level: Myoglobin (rat heart tissue; CARDIOTOX 99, GenBank AF197916): +4.7 fold | Effects on Transcription Level: Titin (rat heart tissue; CARDIOTOX 100, GenBank L38717): −2.1 fold | Effects on Transcription Level: Skeletal muscle actin (rat heart tissue; CARDIOTOX 101, GenBank V01218): −18.3 fold | Effects on Transcription Level: Myosin light chain 2 (MLC2) (rat heart tissue; CARDIOTOX 102, GenBank M11851): +2.2 fold | Effects on Transcription Level: Alpha cardiac myosin heavy chain (rat heart tissue; CARDIOTOX 103, GenBank X15938): −3.5 fold | Effects on Transcription Level: Troponin I (rat heart tissue; CARDIOTOX 104, GenBank U77354): +1.8 fold | Effects on Transcription Level: Cardiac calsequestrin (rat heart tissue; CARDIOTOX 105, GenBank AF001334): −2.9 fold | Effects on Transcription Level: Sulfated glycoprotein 2 (rat heart tissue; CARDIOTOX 106, GenBank M16975): −1.6 fold | Effects on Transcription Level: Aquaporin 7 (rat heart tissue; CARDIOTOX 107, GenBank AB000507): +1.5 fold | Effects on Transcription Level: Carnitine/acylcarnitine carrier protein (rat heart tissue; CARDIOTOX 108, GenBank X97831): −2.5 fold | Effects on Transcription Level: Glu-Pro Dipeptide Repeat (rat heart tissue; CARDIOTOX 109, GenBank U40628): −6.2 fold | Effects on Transcription Level: Cystatin beta (rat heart tissue; CARDIOTOX 110, GenBank X54737): +2.5 fold | Effects on Transcription Level: Novel gene fragment, 593 bp, 90% SI to human calcineurin B-like protein [Z08983] (rat heart tissue; CARDIOTOX 111): +1.10 fold | Effects on Transcription Level: Novel gene fragment, 179 bp, 88% SI to human titin [X90568] (rat heart tissue; CARDIOTOX 112): −3.1 fold | Effects on Transcription Level: Novel gene fragment, 700 bp, 91% SI to mouse periplakin (PPL) [AF116523] (rat heart tissue; CARDIOTOX 113): +2.5 fold | Effects on Transcription Level: Long chain acyl-CoA dehydrogenase (LCAD) (rat heart tissue; CARDIOTOX 114, GenBank J05029): +1.7 fold | Effects on Transcription Level: Sulfated glycoprotein 1 (SGP-1) (rat heart tissue; CARDIOTOX 115, GenBank M19936): −1.8 fold | Effects on Transcription Level: Catalase (rat heart tissue; CARDIOTOX 116, GenBank M11670): +2.1 fold | Effects on Transcription Level: Alpha-fodrin (A2A) (Nonerythroid spectrin alpha subunit) (rat heart tissue; CARDIOTOX 117, GenBank AF084186): −1.7 fold | Effects on Transcription Level: Cardiac specific sodium channel alpha-subunit (rat heart tissue; CARDIOTOX 118, GenBank M27902): −2.0 fold | Effects on Transcription Level: Glu-Pro Dipeptide Repeat (rat heart tissue; CARDIOTOX 119, GenBank U40628): +4.2 fold | Effects on Transcription Level: Novel gene fragment, 200 bp, 64% SI to human KIAA0733 protein [AB018316] (rat heart tissue; CARDIOTOX 120): −1.6 fold | Effects on Transcription Level: RNA polymerase II transcription factor SIII (p18 subunit) (rat heart tissue; CARDIOTOX 121, GenBank L42855): +2.1 fold | Effects on Transcription Level: Protein-tyrosine phosphalase (LRP) (rat heart tissue; CARDIOTOX 122, GenBank L01702): +1.8 fold | Effects on Transcription Level: Skeletal muscle selenoprotein W (SelW) (rat heart tissue; CARDIOTOX 123, GenBank U25264): −1.6 fold | Effects on Transcription Level: Sarcoplasmic reticulum 2+-Ca-ATPase (rat heart tissue; CARDIOTOX 124, GenBank X15635): −2.1 fold | Effects on Transcription Level: Ribosomal protein S7 (rat heart tissue; CARDIOTOX 125, GenBank X53377): +1.7 fold | Effects on Transcription Level: Ribophorin I (rat heart tissue; CARDIOTOX 126, GenBank X05300): +2.0 fold | Effects on Transcription Level: Beta cardiac myosin heavy chain (rat heart tissue; CARDIOTOX 127, GenBank X15939): +2.2 fold | Effects on Transcription Level: ADP-ribosylation factor 1 (rat heart tissue; CARDIOTOX 128, GenBank L12380): +1.3 fold | Effects on Transcription Level: Laminin receptor (rat heart tissue; CARDIOTOX 129, GenBank U04942): +2.6 fold | Effects on Transcription Level: Novel gene fragment, 206 bp, 89% SI to human seryl-tRNA synthetase [X91257] (rat heart tissue; CARDIOTOX 130): +1.8 fold | Effects on Transcription Level: Annexin VI (rat heart tissue; CARDIOTOX 131, GenBank X86086): −09.0 fold | Effects on Transcription Level: Novel gene fragment, 325 bp, 90% SI to mouse N-RAP [U76618] (rat heart tissue; CARDIOTOX 132): +1.7 fold | Effects on Transcription Level: Novel gene fragment, 61 bp (CARDIOTOX 134) (rat heart tissue; LD10 dose for three days): −3 fold | Effects on Transcription Level: Novel gene fragment, 337 bp (CARDIOTOX 133) (rat heart tissue; LD10 dose for three days): −2.1 fold | Effects on Transcription Level: Novel gene fragment, 378 bp, 88% SI to human coatomer protein (COPA) [U24105] (CARDIOTOX 138) (rat heart tissue; LD10 dose for three days): −2.1 fold | Effects on Transcription Level: Long chain 3-ketoacyl-CoA thiolase (CARDIOTOX 136) (rat heart tissue; LD10 dose for three days, GenBank D16479): −1.5 fold | Effects on Transcription Level: TATA-binding protein interacting protein 120 (TIP120) (CARDIOTOX 135) (rat heart tissue; LD10 dose for three days, GenBank D87671): +2.4 fold | Effects on Transcription Level: Serine protease (CARDIOTOX 139) (rat heart tissue; LD10 dose for three days, GenBank D88250): +1.7 fold | Effects on Transcription Level: Thymosin beta-4 (CARDIOTOX 137) (rat heart tissue; LD10 dose for three days, GenBank M34043): +1.4 fold | Effects on Transcription Level: Annexin VI (no CARDIOTOX assignment given) (rat heart tissue; LD10 dose for three days, GenBank X86086): −5.1 fold | classification as cardiotoxic or noncardiotoxic serotonin modulating agent [1]: noncardiotoxic
